This passage reports IC50 and Ki results from ChEMBL document CHEMBL1137865, “Modeling the binding affinities of beta-secretase inhibitors: application to subsite specificity” (Bioorg Med Chem Lett, 2004).

Starred links: 1 amine or outer side, 2 acyl side, 3 side chain; linkers in the order of their positions; H or OH if unused. Non-standard residues stand in square brackets, D forms with d. Residues, ends and D or L forms follow the SMILES beside them. *: point of attachment. LeuΨ(S-CHOHCH2)Ala = CC(C)C[C@H](N[*:1])[C@@H](O)C[C@@H](C)C(=O)[*:2]; X1 = O=C(O)CC[C@H](N*)C(=O)C[C@@H](Cc1ccccc1)C(=O)O

For this experiment, the target named is Beta-secretase 1 (Homo sapiens, UniProt P56817). In words: Binding affinity against Beta-secretase.
Beta-secretase 1, sequence (P56817 whole entry): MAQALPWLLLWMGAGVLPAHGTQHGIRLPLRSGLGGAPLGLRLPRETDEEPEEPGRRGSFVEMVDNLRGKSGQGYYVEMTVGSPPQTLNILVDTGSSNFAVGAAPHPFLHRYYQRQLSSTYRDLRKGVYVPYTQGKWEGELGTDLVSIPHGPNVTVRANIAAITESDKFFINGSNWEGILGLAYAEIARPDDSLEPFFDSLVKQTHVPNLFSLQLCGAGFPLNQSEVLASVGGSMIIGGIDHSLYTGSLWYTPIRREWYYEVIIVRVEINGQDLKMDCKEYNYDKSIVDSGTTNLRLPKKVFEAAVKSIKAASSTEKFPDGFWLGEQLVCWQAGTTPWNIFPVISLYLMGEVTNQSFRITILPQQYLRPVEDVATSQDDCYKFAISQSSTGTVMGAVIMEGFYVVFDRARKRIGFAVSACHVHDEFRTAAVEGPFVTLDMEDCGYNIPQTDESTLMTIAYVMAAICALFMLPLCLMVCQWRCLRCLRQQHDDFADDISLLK
Turning to `CCCN(CCC)C(=O)c1cccc(C(=O)N[C@@H](Cc2cc(F)cc(F)c2)[C@@H](O)C[C@@H](CC)C(=O)N[C@H]2C[C@@H](OC)C[C@@H](OC)C2)c1`, the IC50 turned out to be 6600 nM.
`CCCN(CCC)C(=O)c1cccc(C(=O)N[C@@H](Cc2cc(F)cc(F)c2)[C@@H](O)C[C@@H](CC)C(=O)NCCCCC(=O)O)c1` came in with an IC50 of 400 nM.
Same read-out and setting: the value for `CCCN(CCC)C(=O)c1cccc(C(=O)N[C@@H](Cc2cc(F)cc(F)c2)[C@@H](O)C[C@@H](CC)C(=O)NCc2ccccc2)c1` was 1400 nM.
For `CC(C)C[C@H](NCC(=O)[C@H](CC(N)=O)NC(=O)OC(C)(C)C)C(O)CC(C)C(=O)NC(C(=O)NCc1ccccc1)C(C)C` (some centres undefined), the Ki was 3130 nM.
Consider `CC(C)C[C@H](NC(=O)[C@@H](N)CCC(=O)O)C(=O)N[C@@H](CC(=O)O)C(=O)N[C@@H](CC(C)C)[C@@H](O)C[C@@H](C)C(=O)N[C@H](C(=O)N[C@@H](CCC(=O)O)C(=O)C[C@@H](Cc1ccccc1)C(=O)O)C(C)C` (H-ELD[LeuΨ(S-CHOHCH2)Ala]V-X1), for which the Ki was determined as 0.32 nM.
`CCCN(CCC)C(=O)c1cccc(C(=O)N[C@@H](Cc2cc(F)cc(F)c2)[C@@H](O)C[C@@H](CC)C(=O)NC[C@H]2CC[C@H](C(=O)O)CC2)c1` registered a half-inhibitory concentration (IC50) of 50 nM.
The compound `CC(C)C[C@H](NCC(=O)[C@H](CS(C)(=O)=O)NC(=O)OC(C)(C)C)C(O)CC(C)C(=O)NC(C(=O)NCc1ccccc1)C(C)C` (some centres undefined) gave a Ki of 1130 nM.
For `CCCN(CCC)C(=O)c1cccc(C(=O)N[C@@H](Cc2cc(F)cc(F)c2)[C@@H](O)C[C@@H](CC)C(=O)NCCC(=O)O)c1`, the IC50 stood at 2800 nM.
In turn, `CC(C)C[C@H](NCC(=O)[C@H](CC(N)=O)NC(=O)OC(C)(C)C)C(O)CC(C)C(=O)NC(C)C(=O)NCc1ccccc1` (some centres undefined) displayed a Ki of 22400 nM.

What is called IC50 is the point on the concentration scale where inhibition reaches its midpoint. What is called Ki is a measure of affinity in units of concentration, obtained from inhibition or displacement. Higher therefore signals weaker binding.
